According to patent US20240287138A1, “CYCLIC PEPTIDES FOR INHIBITING TNF RECEPTOR 1 ACTIVITY” (Merck Sharp & Dohme LLC, priority 2023, published 2024):
Numbered stars: 1 amine (or outer) side, 2 acyl side, 3 side chain; on linkers, the order of the positions; unused ones are H or OH. Bridge positions count the residues as written; N and C are the ends. Square brackets hold non-standard residues; d marks the D form. Peptide text beside a SMILES is read from it. * marks the point of attachment. Trp(βS-Me,7-OMe) = COc1cccc2c([C@H](C)[C@H](N)C(=O)O)c[nH]c12; X17 = Cc1[nH]c2ccccc2c1[C@H](C)[C@H](N[*:1])C(=O)[*:2]; Phe(4-NHCONH2) = NC(=O)Nc1ccc(C[C@H](N)C(=O)O)cc1; Trp(7-Cl) = N[C@@H](Cc1c[nH]c2c(Cl)cccc12)C(=O)O; Phe(4-CONH2) = NC(=O)c1ccc(C[C@H](N)C(=O)O)cc1; Phe(4-COOH) = N[C@@H](Cc1ccc(C(=O)O)cc1)C(=O)O; Trp(7-aza) = N[C@@H](Cc1c[nH]c2ncccc12)C(=O)O; Pip(5R-OH) = O=C(O)[C@@H]1CC[C@@H](O)CN1; X1 = O=C([C@@H]1CC[C@H](N[*:1])C1)[*:2]; Pip(4-aza) = O=C(O)[C@@H]1CNCCN1; hArg = N=C(N)NCCCC[C@H](N)C(=O)O; 4Pal = N[C@@H](Cc1ccncc1)C(=O)O; NMeE = CN[C@@H](CCC(=O)O)C(=O)O; dHyp = O=C(O)[C@H]1C[C@H](O)CN1; NMehSer = CN[C@@H](CCO)C(=O)O; hLys = NCCCCC[C@H](N)C(=O)O; NMeS = CN[C@@H](CO)C(=O)O; αMeS = C[C@](N)(CO)C(=O)O; Carboxymethyl = O=C(O)C*; Nle = CCCC[C@H](N)C(=O)O; Sar = CNCC(=O)O

Key:
human TNFR2 ECD protein = molecular target: T1, human TNFR2 ECD protein (Homo sapiens, UniProt P20333); assay: SPR off-target binding (selectivity) to human TNFR2 ECD
T1 construct: HRV 3C protease cleavage site (C); 6His (C, cleaved yes); made in house; host or cells: Sf21 insect cells (baculovirus), secreted
T1 sequence (P20333 23-257): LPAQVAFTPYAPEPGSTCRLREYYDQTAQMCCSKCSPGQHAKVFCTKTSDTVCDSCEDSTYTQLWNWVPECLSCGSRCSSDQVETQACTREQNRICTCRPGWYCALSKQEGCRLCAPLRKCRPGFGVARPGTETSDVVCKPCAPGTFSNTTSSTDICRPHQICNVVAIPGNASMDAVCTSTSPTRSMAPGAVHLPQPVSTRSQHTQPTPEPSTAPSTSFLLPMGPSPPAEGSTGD
Method: (§1) B. Procedure for Binding Affinity and Selectivity measured by SPR
(§2) Affinity and selectivity for hTNFR1 and TNFR2 was determined using SPR. Human TNFR1 or TNFR2 genes (extracellular domain only) were synthesized with a C-terminal Avi-tag, HRV 3C protease cleavage site followed by a 6His-tag for affinity purification. The final gene product was cloned into pBAC™-1 vector (Millipore Sigma) for expression testing in insect cells. Constructs were transfected into Sf21 cells for baculovirus generation followed by protein expression analysis in Sf21 and Tni cell lines. Large scale expression in Sf21 cells was performed using baculovirus infected insect cells (BIICs) infected at a MOI=2.0 grown for 72 h. Target proteins secreted into the media were harvested via centrifugation and concentrated using diafiltration. TNFR was purified by immobilized metal ion affinity chromatography (IMAC) using a Ni-Sepharose HisTrap™ column (Cytiva™). Isolated TNFR had His tag removed using HRV 3C protease followed by additional purification using Ni-NTA chromatography. Biotinylation was performed on Ni-NTA flow-through fractions concentrated to 45 μM and treated with BirA ligase (1:100, μg/μg ratio) in 50 mM Tris pH 7.5, 150 mM NaCl, 50 μM biotin, 10 mM magnesium acetate, 10 mM ATP at 4° C. for 20 h. Final purification of biotin-TNFR and buffer exchange into 20 mM HEPES pH 7.5, 150 mM NaCl was performed using a HiLoad® Superdex® 200 26/60 column (Cytiva™). Highly purified protein was aliquoted and stored at −80° C.
(§3) The SPR assay uses a Cytiva™ 8K or 8K+ biosensor instrument to measure the kinetics of peptide analytes binding to captured human TNFR1 extracellular domain (ECD) protein; peptide analytes are also evaluated for any off-target binding to human TNFR2 ECD protein in parallel. Recombinant human TNFR1 ECD and human TNFR2 ECD proteins, biotinylated via engineered C-terminal avi-tags, are immobilized to a regenerable streptavidin biosensor chip surface (Cytiva™ Biotin CAPture kit, Series S; cat. #28920234). Peptide analytes binding to immobilized human TNFR1 ECD protein and their subsequent dissociation are conducted in a buffer of 10 mM HEPES pH 7.4, 150 mM NaCl, 3 mM EDTA, 0.05% P20,2% DMSO under laminar flow conditions and measured in response units (RU), which are directly proportional to the accumulated mass on the surface of the biosensor chip; the biosensor chip surface is regenerated via Cytiva™ proprietary methods between the evaluation of each peptide analyte. […] The SPR assay determines the association and dissociation rate constants, kon and koff, for each peptide analyte and, from these values, calculates the binding affinity, […] reported in Table 2.

[1] = molecular target: T2, TNFα-induced NF-κB signal transduction pathway (TNFR1 signaling) in THP-1 cells (Homo sapiens, UniProt P19438); assay: THP-1 Lucia NF-κB reporter cell assay, inhibition of TNFα-induced NF-κB signaling; assay type: cell-based; settings: THP-1 NF-κB Lucia reporter cells, 10 ng/mL TNFα, 16-18 h, secreted luciferase; read-out: THP-1 IC50
T2 sequence (P19438 30-455): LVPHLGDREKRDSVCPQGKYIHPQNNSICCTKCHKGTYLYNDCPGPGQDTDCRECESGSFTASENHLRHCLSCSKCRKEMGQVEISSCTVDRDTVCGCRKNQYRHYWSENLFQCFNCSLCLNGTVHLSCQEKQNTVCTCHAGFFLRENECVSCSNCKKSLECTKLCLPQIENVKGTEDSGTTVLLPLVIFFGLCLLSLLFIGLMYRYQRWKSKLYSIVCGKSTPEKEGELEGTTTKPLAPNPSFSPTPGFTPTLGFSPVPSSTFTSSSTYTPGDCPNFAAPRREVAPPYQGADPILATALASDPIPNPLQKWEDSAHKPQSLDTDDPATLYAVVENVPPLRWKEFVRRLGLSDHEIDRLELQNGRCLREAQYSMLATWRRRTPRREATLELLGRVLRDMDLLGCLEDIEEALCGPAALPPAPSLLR
How it was run: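 Read-out: secreted Lucia luciferase luminescence (QUANTI-Luc) from supernatant after 16-18 h, 37 °C, 10 ng/mL rhTNFα. Peptide pretreatment 1 h at 37 °C; 20,000 cells/well, selection antibiotics omitted. IC50 via 4-parameter logistic model against min/max controls.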

[2] = molecular target: T3, human TNFR1 extracellular domain (ECD) protein (Homo sapiens, UniProt P19438); assay: SPR binding affinity to captured human TNFR1 ECD
T3 construct: HRV 3C protease cleavage site (C); 6His (C, cleaved yes); made in house; host or cells: Sf21 insect cells (baculovirus), secreted
T3 sequence (P19438 30-211): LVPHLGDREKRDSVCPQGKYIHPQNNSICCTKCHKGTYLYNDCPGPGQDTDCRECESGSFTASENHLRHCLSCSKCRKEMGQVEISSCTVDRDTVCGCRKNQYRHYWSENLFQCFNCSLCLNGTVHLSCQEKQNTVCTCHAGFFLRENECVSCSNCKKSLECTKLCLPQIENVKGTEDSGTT
Method: as §1, §2, §3

Structure (SMILES)	Kd (human TNFR2 ECD protein) [nM]	IC50 [1] [nM]	Kd [2] [nM]
CCCC[C@@H]1NC(=O)[C@@H]2CC[C@@H](C2)NC(=O)[C@H]([C@@H](C)c2c[nH]c3c(OC)cccc23)NC(=O)CN(C)C(=O)[C@H](Cc2ccc(O)cc2)NC(=O)[C@H](Cc2ccc(NC(N)=O)cc2)NC(=O)[C@](C)(CO)NC(=O)[C@H](Cc2c[nH]c3c(Cl)cccc23)NC(=O)[C@H](Cc2ccncc2)NC(=O)[C@H](CC(N)=O)NC(=O)[C@H](CCC(=O)O)N(C)C(=O)[C@H](Cc2c[nH]c3ccccc23)NC(=O)[C@@H]2CNCCN2C(=O)[C@H](Cc2ccncc2)NC1=O [SEQ ID NO. 127] (cyclo([4Pal][Trp(7-Cl)][αMeS][Phe(4-NHCONH2)]Y[Sar][Trp(βS-Me,7-OMe)][X1][Nle][4Pal][Pip(4-aza)]W[NMeE]N))	> 1000	0.8	0.18
CCCC[C@@H]1NC(=O)[C@@H]2CC[C@@H](C2)NC(=O)[C@H]([C@@H](C)c2c[nH]c3c(OC)cccc23)NC(=O)CN(C)C(=O)[C@H](Cc2ccc(O)cc2)NC(=O)[C@H](Cc2ccc(C(N)=O)cc2)NC(=O)[C@](C)(CO)NC(=O)[C@H](Cc2c[nH]c3c(Cl)cccc23)NC(=O)[C@H](Cc2ccc(OCC(=O)O)cc2)NC(=O)[C@H](CC(N)=O)NC(=O)[C@H](CCC(=O)O)N(C)C(=O)[C@H](Cc2c[nH]c3ccccc23)NC(=O)[C@@H]2CC[C@@H](O)CN2C(=O)[C@H](Cc2ccncc2)NC1=O [SEQ ID NO. 44] (cyclo([4Pal][Pip(5R-OH)]W[NMeE]NY(Carboxymethyl)[Trp(7-Cl)][αMeS][Phe(4-CONH2)]Y[Sar][Trp(βS-Me,7-OMe)][X1][Nle]))	> 1000	0.5	0.16
CCCC[C@@H]1NC(=O)CSC[C@@H](C(N)=O)NC(=O)[C@H]([C@@H](C)c2c[nH]c3c(OC)cccc23)NC(=O)CN(C)C(=O)[C@H](Cc2ccc(O)cc2)NC(=O)[C@H](Cc2ccc(C(=O)O)cc2)NC(=O)[C@](C)(CO)NC(=O)[C@H](Cc2c[nH]c3c(Cl)cccc23)NC(=O)[C@H](Cc2ccc(C(=O)O)cc2)NC(=O)[C@H](CC(N)=O)NC(=O)[C@H](CCC(=O)O)N(C)C(=O)[C@H](Cc2c[nH]c3ccccc23)NC(=O)[C@H](CO)N(C)C(=O)[C@H](Cc2ccc(C(N)=O)cc2)NC1=O [SEQ ID NO. 123] ({CH2CO}-[Nle][Phe(4-CONH2)][NMeS]W[NMeE]N[Phe(4-COOH)][Trp(7-Cl)][αMeS][Phe(4-COOH)]Y[Sar][Trp(βS-Me,7-OMe)]C-NH2; thioether N-14)	> 1000	4.1	0.32
CCCC[C@@H]1NC(=O)[C@@H]2CC[C@@H](C2)NC(=O)[C@H]([C@@H](C)c2c[nH]c3c(OC)cccc23)NC(=O)CN(C)C(=O)[C@H](Cc2ccc(O)cc2)NC(=O)[C@H](Cc2ccc(C(N)=O)cc2)NC(=O)[C@](C)(CO)NC(=O)[C@H](Cc2c[nH]c3c(Cl)cccc23)NC(=O)[C@H](Cc2ccc(C(=O)O)cc2)NC(=O)[C@H](CC(N)=O)NC(=O)[C@H]2C[C@H](OCC(=O)O)CN2C(=O)[C@H](Cc2c[nH]c3ccccc23)NC(=O)[C@@H]2CNCCN2C(=O)[C@H](Cc2ccncc2)NC1=O [SEQ ID NO. 95] (cyclo([4Pal][Pip(4-aza)]W[dHyp](Carboxymethyl)N[Phe(4-COOH)][Trp(7-Cl)][αMeS][Phe(4-CONH2)]Y[Sar][Trp(βS-Me,7-OMe)][X1][Nle]))	> 1000	0.7	0.2
COc1cccc2c([C@H](C)[C@@H]3NC(=O)CN(C)C(=O)[C@H](Cc4ccc(O)cc4)NC(=O)[C@H](Cc4ccc(C(=O)O)cc4)NC(=O)[C@](C)(CO)NC(=O)[C@H](Cc4c[nH]c5c(Cl)cccc45)NC(=O)[C@H](Cc4ccncc4)NC(=O)[C@H](CC(N)=O)NC(=O)[C@H](CCC(=O)O)N(C)C(=O)[C@H](Cc4c[nH]c5ccccc45)NC(=O)[C@@H]4CNCCN4C(=O)[C@H](Cc4ccncc4)NC(=O)[C@H](CCCCNC(=N)N)NC(=O)[C@@H]4CC[C@@H](C4)NC3=O)c[nH]c12 [SEQ ID NO. 35] (cyclo([4Pal][Trp(7-Cl)][αMeS][Phe(4-COOH)]Y[Sar][Trp(βS-Me,7-OMe)][X1][hArg][4Pal][Pip(4-aza)]W[NMeE]N))	> 1000	1	0.11
CCCC[C@@H]1NC(=O)CSC[C@@H](C(N)=O)NC(=O)[C@H]([C@@H](C)c2c(C)[nH]c3ccccc23)NC(=O)CN(C)C(=O)[C@H](Cc2ccc(O)cc2)NC(=O)[C@H](Cc2ccc(C(N)=O)cc2)NC(=O)[C@](C)(CO)NC(=O)[C@H](Cc2c[nH]c3c(Cl)cccc23)NC(=O)[C@H](Cc2ccncc2)NC(=O)[C@H](CC(N)=O)NC(=O)[C@H](CCC(=O)O)N(C)C(=O)[C@H](Cc2c[nH]c3ccccc23)NC(=O)[C@@H]2CC[C@@H](O)CN2C(=O)[C@H](Cc2ccncc2)NC1=O [SEQ ID NO. 97] ({CH2CO}-[Nle][4Pal][Pip(5R-OH)]W[NMeE]N[4Pal][Trp(7-Cl)][αMeS][Phe(4-CONH2)]Y[Sar][X17]C-NH2; thioether N-14)	> 1000	0.9	0.08
COc1cccc2c([C@H](C)[C@@H]3NC(=O)CN(C)C(=O)[C@H](Cc4ccc(O)cc4)NC(=O)[C@H](Cc4ccc(C(=O)O)cc4)NC(=O)[C@](C)(CO)NC(=O)[C@H](Cc4c[nH]c5c(Cl)cccc45)NC(=O)[C@H](Cc4ccncc4)NC(=O)[C@H](CC(N)=O)NC(=O)[C@H](CCC(=O)O)N(C)C(=O)[C@H](Cc4c[nH]c5ccccc45)NC(=O)[C@@H]4CC[C@@H](O)CN4C(=O)[C@H](Cc4ccncc4)NC(=O)[C@H](CCCCCN)NC(=O)[C@@H]4CC[C@@H](C4)NC3=O)c[nH]c12 [SEQ ID NO. 131] (cyclo([4Pal][Trp(7-Cl)][αMeS][Phe(4-COOH)]Y[Sar][Trp(βS-Me,7-OMe)][X1][hLys][4Pal][Pip(5R-OH)]W[NMeE]N))	> 1000	0.7	0.06
CCCC[C@@H]1NC(=O)CSC[C@@H](C(N)=O)NC(=O)[C@H]([C@@H](C)c2c[nH]c3c(OC)cccc23)NC(=O)CN(C)C(=O)[C@H](Cc2ccc(O)cc2)NC(=O)[C@H](Cc2ccc(C(=O)O)cc2)NC(=O)[C@](C)(CO)NC(=O)[C@H](Cc2c[nH]c3c(Cl)cccc23)NC(=O)[C@H](Cc2ccncc2)NC(=O)[C@H](CC(N)=O)NC(=O)[C@H](CCC(=O)O)N(C)C(=O)[C@H](Cc2c[nH]c3ncccc23)NC(=O)[C@H](CCOC)N(C)C(=O)[C@H](Cc2ccncc2)NC1=O [SEQ ID NO. 99] ({CH2CO}-[Nle][4Pal][NMehSer](Me)[Trp(7-aza)][NMeE]N[4Pal][Trp(7-Cl)][αMeS][Phe(4-COOH)]Y[Sar][Trp(βS-Me,7-OMe)]C-NH2; thioether N-14)	> 1000	3.7	0.15
